Each structure is given as a SMILES string. Counter-ions that a name gives are not always drawn. Like-named read-outs stand apart in the source and are kept apart here.

What all share (experiment): AK assay 384-well format, Prestwick library screening
For experiment [1], the system named is E. faecium. Format: cell-based, Enterococcus faecium. The conditions noted are these: 50 μM final drug concentration; for fold induction at 50 µM: Enterococcus faecium, 3 h.
The test system of experiment [2] is S. aureus strain USA300-0114. Format: cell-based, Staphylococcus aureus. The following applies: 50 μM final drug concentration; for fold induction at 50 µM: Staphylococcus aureus, USA300, 3 h.
The test system of experiment [3] is K. pneumoniae. It counts as cell-based, Klebsiella pneumoniae. The conditions noted are these: 50 μM final drug concentration; for fold induction at 50 µM: Klebsiella pneumoniae, 3 h.
The subject of experiment [4] is A. baumannii strain 98-37-09. It counts as cell-based, Acinetobacter baumannii. The following applies: 50 μM final drug concentration; for fold induction at 50 µM: Acinetobacter baumannii, 983709, 3 h.
For experiment [5], the system named is P. aeruginosa. Format: cell-based, Pseudomonas aeruginosa. The conditions noted are these: 50 μM final drug concentration; for fold induction at 50 µM: Pseudomonas aeruginosa, 3 h.
Experiment [6] deals with E. cloacae. Format: cell-based, Enterobacter cloacae. The following applies: 50 μM final drug concentration; for fold induction at 50 µM: Enterobacter cloacae, 3 h.
Experiment [7] concerns E. coli. It counts as cell-based, Escherichia coli. The following applies: 50 μM final drug concentration; for fold induction at 50 µM: Escherichia coli, 3 h.
Where [8] appears, read: planktonic E. faecium, 384-well, cutoff for positive-scoring molecules 3-fold increase, read-out: AK-based Prestwick Library Screening Results: E. faecium (increase in extracellular AK activity).
Setting [9] is: planktonic S. aureus, 384-well, cutoff for positive-scoring molecules 3-fold increase, read-out: AK-based Prestwick Library Screening Results: S. aureus (increase in extracellular AK activity).
[10] abbreviates: planktonic K. pneumoniae, 384-well, cutoff for positive-scoring molecules 3-fold increase, read-out: AK-based Prestwick Library Screening Results: K. pneumoniae (increase in extracellular AK activity).
Where [11] appears, read: planktonic A. baumannii, 384-well, cutoff for positive-scoring molecules 3-fold increase, read-out: AK-based Prestwick Library Screening Results: A. baumannii (increase in extracellular AK activity).
[12] abbreviates: planktonic P. aeruginosa, 384-well, cutoff for positive-scoring molecules 3-fold increase, read-out: AK-based Prestwick Library Screening Results: P. aeruginosa (increase in extracellular AK activity).
The mark [13] stands for this setting: planktonic E. cloacae, 384-well, cutoff for positive-scoring molecules 3-fold increase, read-out: AK-based Prestwick Library Screening Results: E. cloacae (increase in extracellular AK activity).
[14] abbreviates: planktonic E. coli, 384-well, cutoff for positive-scoring molecules 3-fold increase, read-out: AK-based Prestwick Library Screening Results: E. coli (increase in extracellular AK activity).
The mark [15] stands for this setting: cutoff for positive-scoring molecules 3-fold increase, read-out: AK-based Prestwick Library Screening Results, E. faecium (fold increase in extracellular AK activity).
Setting [16] is: cutoff for positive-scoring molecules 3-fold increase, read-out: AK-based Prestwick Library Screening Results, S. aureus (fold increase in extracellular AK activity).
Where [17] appears, read: cutoff for positive-scoring molecules 3-fold increase, read-out: AK-based Prestwick Library Screening Results, K. pneumoniae (fold increase in extracellular AK activity).
[18] abbreviates: cutoff for positive-scoring molecules 3-fold increase, read-out: AK-based Prestwick Library Screening Results, A. baumannii (fold increase in extracellular AK activity).
Setting [19] is: cutoff for positive-scoring molecules 3-fold increase, read-out: AK-based Prestwick Library Screening Results, P. aeruginosa (fold increase in extracellular AK activity).
Where [20] appears, read: cutoff for positive-scoring molecules 3-fold increase, read-out: AK-based Prestwick Library Screening Results, E. cloacae (fold increase in extracellular AK activity).
The mark [21] stands for this setting: cutoff for positive-scoring molecules 3-fold increase, read-out: AK-based Prestwick Library Screening Results, E. coli (fold increase in extracellular AK activity).
The mark [22] stands for this setting: cutoff for positive-scoring molecules 3-fold increase.
[23] abbreviates: planktonic, cutoff for positive-scoring molecules 3-fold increase, read-out: AK-based Prestwick Library Screening Results, E. faecium (fold increase in extracellular AK activity).
Setting [24] is: planktonic, cutoff for positive-scoring molecules 3-fold increase, read-out: AK-based Prestwick Library Screening Results, S. aureus (fold increase in extracellular AK activity).
The mark [25] stands for this setting: planktonic, cutoff for positive-scoring molecules 3-fold increase, read-out: AK-based Prestwick Library Screening Results, K. pneumoniae (fold increase in extracellular AK activity).
Setting [26] is: planktonic, cutoff for positive-scoring molecules 3-fold increase, read-out: AK-based Prestwick Library Screening Results, A. baumannii (fold increase in extracellular AK activity).
[27] abbreviates: planktonic, cutoff for positive-scoring molecules 3-fold increase, read-out: AK-based Prestwick Library Screening Results, P. aeruginosa (fold increase in extracellular AK activity).
The mark [28] stands for this setting: planktonic, cutoff for positive-scoring molecules 3-fold increase, read-out: AK-based Prestwick Library Screening Results, E. cloacae (fold increase in extracellular AK activity).
Where [29] appears, read: planktonic, cutoff for positive-scoring molecules 3-fold increase, read-out: AK-based Prestwick Library Screening Results, E. coli (fold increase in extracellular AK activity).
[30] abbreviates: planktonic, cutoff for positive 3-fold increase, read-out: AK-based Prestwick Library Screening Results, E. faecium (fold increase in extracellular AK activity).
The mark [31] stands for this setting: planktonic, cutoff for positive 3-fold increase, read-out: AK-based Prestwick Library Screening Results, S. aureus (fold increase in extracellular AK activity).
Setting [32] is: planktonic, cutoff for positive 3-fold increase, read-out: AK-based Prestwick Library Screening Results, K. pneumoniae (fold increase in extracellular AK activity).
Setting [33] is: planktonic, cutoff for positive 3-fold increase, read-out: AK-based Prestwick Library Screening Results, A. baumannii (fold increase in extracellular AK activity).
Setting [34] is: planktonic, cutoff for positive 3-fold increase, read-out: AK-based Prestwick Library Screening Results, P. aeruginosa (fold increase in extracellular AK activity).
The mark [35] stands for this setting: planktonic, cutoff for positive 3-fold increase, read-out: AK-based Prestwick Library Screening Results, E. cloacae (fold increase in extracellular AK activity).
The mark [36] stands for this setting: planktonic, cutoff for positive 3-fold increase, read-out: AK-based Prestwick Library Screening Results, E. coli (fold increase in extracellular AK activity).

For `Nc1cc(N2CCCCC2)nc(N)[n+]1[O-]` [Minoxidil], the fold induction at 50 µM came out at 1 in experiment [1] (384-well format, cutoff for positive-scoring molecules 3-fold increase, read-out: AK-based Prestwick Library Screening Results, E. faecium (increase in extracellular AK activity)); 0.7 in experiment [2] (384-well format, cutoff for positive-scoring molecules 3-fold increase, read-out: AK-based Prestwick Library Screening Results, S. aureus (increase in extracellular AK activity)); 0.6 in experiment [3] (384-well format, cutoff for positive-scoring molecules 3-fold increase, read-out: AK-based Prestwick Library Screening Results, K. pneumoniae (increase in extracellular AK activity)); 0.8 in experiment [4] (384-well format, cutoff for positive-scoring molecules 3-fold increase, read-out: AK-based Prestwick Library Screening Results, A. baumannii (increase in extracellular AK activity)); 0.6 in experiment [5] (384-well format, cutoff for positive-scoring molecules 3-fold increase, read-out: AK-based Prestwick Library Screening Results, P. aeruginosa (increase in extracellular AK activity)); 0.7 in experiment [6] (384-well format, cutoff for positive-scoring molecules 3-fold increase, read-out: AK-based Prestwick Library Screening Results, E. cloacae (increase in extracellular AK activity)). For the same molecule, the fold induction at 50 µM in experiment [7] (384-well format, cutoff for positive-scoring molecules 3-fold increase, read-out: AK-based Prestwick Library Screening Results, E. coli (increase in extracellular AK activity)) turned out to be 0.6.

On to `Clc1ccc(Cn2c(CN3CCCC3)nc3ccccc32)cc1` [Clemizole hydrochloride], for which the fold induction at 50 µM in experiment [1] (setting [8]) was 1.2; in experiment [2] (setting [9]), 1.6; in experiment [3] (setting [10]), 1; in experiment [4] (setting [11]), 1.6; in experiment [5] (setting [12]) it was 1.2; in experiment [6] (setting [13]) it was 1.4. Further, the fold induction at 50 µM in experiment [7] (setting [14]) was determined as 1.2.

As to `CC(=O)O[C@]1(C(C)=O)CC[C@H]2[C@@H]3C=C(C)C4=CC(=O)CC[C@]4(C)[C@H]3CC[C@@]21C` [Megestrol acetate], the fold induction at 50 µM in experiment [1] (setting [15]) stood at 1.2; in experiment [2] (setting [16]) it was 0.9; in experiment [3] (setting [17]), 1; in experiment [4] (setting [18]), 1.2; in experiment [5] (setting [19]) it was 1.2; in experiment [6] (setting [20]), 1.6. Also, the fold induction at 50 µM in experiment [7] (setting [21]) turned out to be 1.1.

As for `CCO.C[C@H]1c2cccc(O)c2C(O)=C2C(=O)[C@]3(O)C(O)=C(C(N)=O)C(=O)[C@@H](N(C)C)[C@@H]3[C@@H](O)[C@@H]21.C[C@H]1c2cccc(O)c2C(O)=C2C(=O)[C@]3(O)C(O)=C(C(N)=O)C(=O)[C@@H](N(C)C)[C@@H]3[C@@H](O)[C@@H]21.Cl.Cl.O` [Doxycycline hyclate], the “AK-based Prestwick Library Screening Results, E. faecium (fold increase in extracellular AK activity)” value in experiment [1] (setting [22]) stood at 1.1. The “AK-based Prestwick Library Screening Results, S. aureus (fold increase in extracellular AK activity)” value in experiment [2] (setting [22]) was found to be 9.4. In addition, in experiment [3] (setting [22]), the “AK-based Prestwick Library Screening Results, K. pneumoniae (fold increase in extracellular AK activity)” value was found to be 0.3. Further, the “AK-based Prestwick Library Screening Results, A. baumannii (fold increase in extracellular AK activity)” value in experiment [4] (setting [22]) turned out to be 3.4. The “AK-based Prestwick Library Screening Results, P. aeruginosa (fold increase in extracellular AK activity)” value in experiment [5] (setting [22]) is listed as 0.7. Besides, the “AK-based Prestwick Library Screening Results, E. cloacae (fold increase in extracellular AK activity)” value in experiment [6] (setting [22]) was 1.5. The “AK-based Prestwick Library Screening Results, E. coli (fold increase in extracellular AK activity)” value in experiment [7] (setting [22]) is 2.0.

With `CN1CCOC(c2ccccc2)c2ccccc2C1` (stereo not shown) [Nefopam hydrochloride], the fold induction at 50 µM came to 1 in experiment [1] (setting [8]); 1.1 in experiment [2] (setting [9]); 0.9 in experiment [3] (setting [10]); 1.4 in experiment [4] (setting [11]); 1.2 in experiment [5] (setting [12]); 1.4 in experiment [6] (setting [13]). Further, the fold induction at 50 µM in experiment [7] (setting [14]) was 1.2.

As for `COc1ccc(C(Cl)=C(c2ccc(OC)cc2)c2ccc(OC)cc2)cc1` [Chlorotrianisene], the fold induction at 50 µM in experiment [1] (setting [23]) stood at 1; in experiment [2] (setting [24]), 0.8; in experiment [3] (setting [25]), 0.8; in experiment [4] (setting [26]), 0.8; in experiment [5] (setting [27]) it was 0.8; in experiment [6] (setting [28]), 1.4. In addition, the fold induction at 50 µM in experiment [7] (setting [29]) was found to be 0.9.

For `CCOC(=O)C1=C(C)NC(C)=C(C(=O)OC)C1c1cccc(Cl)c1Cl` (stereo not shown) [Felodipine], the fold induction at 50 µM is 1.3 in experiment [1] (setting [30]); 2.5 in experiment [2] (setting [31]); 1 in experiment [3] (setting [32]); 3 in experiment [4] (setting [33]); 1 in experiment [5] (setting [34]); 1.7 in experiment [6] (setting [35]). Besides, in experiment [7] (setting [36]), the fold induction at 50 µM stood at 1.2.

Consider `COc1ccc2[nH]cc(CCNC(C)=O)c2c1` [Melatonin], for which the fold induction at 50 µM in experiment [1] (setting [30]) was found to be 1; in experiment [2] (setting [31]), 1.3; in experiment [3] (setting [32]) it was 0.8; in experiment [4] (setting [33]), 1.2; in experiment [5] (setting [34]) it was 1.1; in experiment [6] (setting [35]), 1.4. For the same molecule, the fold induction at 50 µM in experiment [7] (setting [36]) stood at 0.9.

With `CCCCN(CCCC)CCCOC(=O)c1ccc(N)cc1` [Butacaine], the fold induction at 50 µM was found to be 0.9 in experiment [1] (setting [23]); 0.8 in experiment [2] (setting [24]); 0.8 in experiment [3] (setting [25]); 0.9 in experiment [4] (setting [26]); 1 in experiment [5] (setting [27]); 1.4 in experiment [6] (setting [28]). The fold induction at 50 µM in experiment [7] (setting [29]) turned out to be 0.9.

Regarding `CC[N+](CC)(CC(=O)Nc1c(C)cccc1C)Cc1ccccc1` [Denatonium benzoate], the fold induction at 50 µM in experiment [1] (setting [15]) turned out to be 0.9; in experiment [2] (setting [16]) it was 0.4; in experiment [3] (setting [17]), 0.4; in experiment [4] (setting [18]), 0.3; in experiment [5] (setting [19]), 0.4; in experiment [6] (setting [20]), 0.4. Moreover, in experiment [7] (setting [21]), the fold induction at 50 µM is 0.5.

(Values after US10004701B2, “Methods and compositions for treating infection” (UNIVERSITY OF ROCHESTER, priority 2012, dated 2018).)
